In series [1] the target is lysophosphatidic acyl transferase (LPAAT). The following applies: cytokine-activated LPAAT; read-out: IC50 (generation of phosphatidic acid); cited from earlier work.
Series [2] concerns SARS-CoV-2.
The subject of series [3] is SARS-CoV-2. Nature of the series: microbe, parasite or virus in culture.
A short description of series [4]: Uninfected host cell cytotoxicity counter screen. It counts as cell-based, human. The following applies: human, uninfected HeLa-ACE2 cells; uninfected HeLa-ACE2, 24 h. The protocol:
Compounds were acoustically transferred into 1,536-well clear plates (Greiner Part. No. 789091). HeLa-ACE2 cells were maintained as described for the infection assay and seeded in the assay-ready plates at 400 cells/well in DMEM with 2% FBS and plates were incubated for 24 hours at 37 5% CO2. To assess cell viability, the Image-iT DEAD green reagent (Thermo Fisher) was used according to manufacturer instructions. Cells were fixed with 4% paraformaldehyde, and counterstained with DAPI. Fixed cells were imaged using the ImageXpress Micro Confocal High-Content Imaging System (Molecular Devices) with a 10× objective, and total live cells per well quantified in the acquired images using the Live Dead Application Module (MetaXpress).
Image analysis was carried out with MetaXpress (version 6.5.4.532). Primary in vitro screen and the host cell cytotoxicity counter screen data were uploaded to Genedata Screener, Version 16.0.3-Standard. Data were normalized to neutral (DMSO) […] inhibitor controls (2.5 μM remdesivir for antiviral effect and 10 μM puromycin for infected host cell toxicity). For the uninfected host cell cytotoxicity counter screen 40 μM puromycin (Sigma) was used as the positive control. For dose response experiments compounds were tested in technical triplicates on different assay plates and dose curves were fitted with the four parameter Hill Equation. Technical replicate data were analyzed using median condensing.
Background: Counterscreens check selectivity or assay interference.

The subject of series [5] is wild-type B-RAF-expressing human foreskin fibroblasts. The following applies: cited from earlier work.
Another series relates to cancer cell lines. The following applies: cited from earlier work.
Series [6] has as its system B-RAFV^600E-expressing A375P melanoma cells. The following applies: cited from earlier work.
For series [7], the target named is 3CL Protease (SARS-CoV-2) (Severe acute respiratory syndrome coronavirus 2, UniProt P0DTD1). Briefly: 3CL Protease (untagged, SARS-CoV-2) activity assay. The format is biochemical. From the text:
The 3CL Protease Activity Assay described in this example is designed to measure 3CL Protease activity for screening and profiling applications, in a homogeneous assay with no time-consuming washing steps. The assay can be performed in a 96-well format, with purified untagged 3CL Protease, fluorogenic substrate, and 3CL Protease assay buffer for 100 enzyme reactions. 3CL inhibitor GC376 was included as a positive control. See https://bpsbioscience.com/3cl-protease-intagged-sars-cov-2-assay-kit-78042.
3CL Protease (SARS-CoV-2), no tag*; 3CL Protease Substrate (10 mM); 3CL Protease Assay Buffer; GC376, MW=507.5; 0.5 M DTT; Black, low binding microtiter plate; Plate sealing film. Fluorescent microplate reader capable of reading exc/em=360 nm/460 nm
All Samples and Controls were Tested in Duplicate.
• 1) Added 0.5 M DTT to 3CL Protease Assay Buffer so final DTT concentration was 1 mM. (e.g., added 10 μl of 0.5 M DTT to 5 ml assay buffer) (DTT was added just before use. Enough DTT-containing buffer as required for the assay was prepared. Remaining assay buffer was stored at −20° C.). • 2) Thaw 3CL Protease was thawed on ice. Upon first thaw, tube containing enzyme was briefly spun to recover the full content of the tube. Aliquoted 3CL Protease into single use aliquots. Stored remaining undiluted enzyme in aliquots at −80° C. • 3) Diluted 3CL Protease in Assay buffer (with 1 mM DTT) at 0.5 ng/μl (15 ng per reaction). • 4) Added 30 μl diluted 3CL Protease enzyme solution to wells designated as “Positive Control”, “Inhibitor Control” and “Test Sample”. Added 30 μl Assay buffer (with 1 mM DTT) to the “Blank” wells.
• 5) Diluted 50 μg GC376 in 200 μl water to obtain a 500 μM solution. Aliquoted and stored remaining solution in aliquots at −80° C. Added 10 μl GC376 (500 μM) to the wells labeled “Inhibitor Control”. • 6) Prepared the inhibitor solution.
(If the inhibitor compound was dissolved in DMSO, made a 100-fold higher concentration of the compound than the highest concentration tested in DMSO. Then made a 20-fold dilution in 1× assay buffer (at this step the compound concentration is 5-fold higher than the final concentration)).
If the inhibitor compound is dissolved in water, made a solution of the compound 5-fold higher than the final concentration in 3CL Protease assay buffer (with 1 mM DTT). For example, diluting 50 μg GC376 in 200 μl water (step 5) creates a 500 μM solution. Adding 10 μl to the assay (final volume 50 μl) results in a 100 μM final concentration.
7) Added 10 μl inhibitor to each well designated “Test Sample”. Added 10 μl 1× assay buffer or 5% DMSO in water (depending on which inhibitor solution is used) to “Blank” and “Positive Control” wells. • 8) Preincubated enzyme with the inhibitor for 30 min at room temperature with slow shaking. • 9) Diluted 10 mM 3CL Protease substrate 1:50 in assay buffer with DTT, to make a 200 μM solution. Diluted only enough as was required for the assay. • 10) Started reaction by adding 10 μl of the substrate solution to each well (Final concentration of the 3CL Protease substrate in a 50 μl reaction was 40 μM). • 11) Incubated for 4 hours at room temperature with slow shaking. Sealed the plate with the plate sealer. Measured the fluorescence intensity in a microtiter plate-reading fluorimeter capable of excitation at a wavelength 360 nm and detection of emission at a wavelength 460 nm. The fluorescence intensity can also be measured kinetically. “Blank” value was subtracted from all other values. Data Analysis
3CL Protease activity assays were performed in duplicates. The fluorescence data were analyzed using the computer software, Graphpad Prism. In the absence of the compound, the fluorescence (Ft) in each data set was defined as 100% activity. In the absence of the 3CL Protease, the fluorescence (Fb) in each data set was defined as 0% activity. […]

A further series concerns MCF-7 cell line. The following applies: read-out: IC50 (antitumor activity in vitro); cited from earlier work.
The test system of the next series is HeLa cells. The following applies: read-out: IC50 (apoptosis); cited from earlier work.
In the next series the test system is thymocytes. The following applies: read-out: IC50 (apoptosis); cited from earlier work.
Another series relates to Renal 1983 cell line. The following applies: read-out: IC50 (antitumor activity in vitro); cited from earlier work.
For series [8] the following is noted: in vivo; cited from earlier work.
Series [9] deals with SARS-CoV-2. The following applies: ReFRAME screen, same methods (Bakowski et al, 2020); cited from earlier work.
The mark [10] stands for this setting: Severe acute respiratory syndrome coronavirus 2, HeLa-ACE2, 24 h.

Molecules are shown by their SMILES. Counter-ions that a name gives are not always drawn. Like-named read-outs stand apart in the source and are kept apart here.

On to `C[C@@H](O)CCCCn1c(=O)c2c(ncn2C)n(C)c1=O` [(R)-LSF, 3,7-dihydro-1-[(5R)-5-hydroxyhexyl]-3,7-dimethyl-1H-purine-2,6-dione], for which the IC50 in series [1] is 0.6 µM.

As a reminder, the EC50 is the concentration needed to bring the measured effect to its halfway point. One may read the CC50 as the concentration giving 50% cytotoxicity. Higher therefore signals better tolerance by the cells. On to `Cc1c2c(nn1C)CSCc1cc(n(C)n1)CSc1cc(c3ccccc3c1)OCCCc1c(C(=O)O)n(C)c3c-2c(Cl)ccc13` [AZD-5991], for which, in the series on SARS-CoV-2 [2], the “SI (selectivity index, CC50/EC50)” value turned out to be 0.06 and the “activity in the HeLa-ACE2 cell-based SARS-CoV-2 assay (in words)” value is recorded as “demonstrated activity”. This compound came in with an EC50 with SARS-CoV-2 [3] (setting [10]) of 8.81 µM. The same compound returned a CC50 at 24 h in series [4] of 0.527 µM.

For orientation: GI50 means the concentration that inhibits growth by half. For the compound `CC(C)(C)c1nc(-c2cccc(NS(=O)(=O)c3c(F)cccc3F)c2F)c(-c2ccnc(N)n2)s1` [Dabrafenib, N-[3-[5-(2-amino-4-pyrimidinyl)-2-(1,1-dimethylethyl)-4-thiazolyl]-2-fluorophenyl]-2,6-difluorobenzenesulfonamide], the “EC200 (caspase-3/7 activation)” value in [5] was > 10,000 nM; in [6], 71 nM. Besides, the concentration for 50% growth inhibition (GI50) in the series with cancer cell lines (16 cancer cell lines expressing mutant B-RAFV600E) was < 0.2 µM; in the series on cancer cell lines (19 cell lines expressing wild-type Ras and RAF), < 7 µM; in the series with cancer cell lines (five cell lines expressing other B-RAF mutants), < 0.03 µM; with cancer cell lines (four B-RAFV600E lines, 133 wild-type Ras and Raf lines, 18 mutant Ras lines not inhibited), > 10 µM.

Consider `COc1ccc2c3c1O[C@H]1C[C@@H](O)C=C[C@@]31CCN(C)C2` [Galantamine, (4aS,6R,8aS)-4a,5,9,10,11,12-hexahydro-3-methoxy-11-methyl-6H-benzofuro[3a,3,2-ef][2]benzazepin-6-ol], for which the “3CL Protease Activity (Fluorescence count) Repeat1” value turned out to be 759 in series [7] (Galantamine 0.009 μM); 746 in series [7] (Galantamine 0.018 μM); 785 in series [7] (Galantamine 0.070 μM); 737 in series [7] (Galantamine 0.14 μM); 761 in series [7] (Galantamine 0.28 μM); 593 in series [7] (Galantamine 4.5 μM). In addition, the “3CL Protease Activity (Fluorescence count) Repeat2” value in [7] (Galantamine 0.009 μM) was determined as 768; in [7] (Galantamine 0.018 μM), 752; in [7] (Galantamine 0.070 μM), 783; in series [7] (Galantamine 0.14 μM) it was 760; in series [7] (Galantamine 0.28 μM), 797; in series [7] (Galantamine 4.5 μM), 543. Further, the values for the activity at 0.009 µM in series [7] (read-out: % Activity Repeat1) and in [7] (read-out: % Activity Repeat2) were 98% and 99%, respectively. In addition, the activity at 0.018 µM in series [7] (read-out: % Activity Repeat1) amounted to 96%; in [7] (read-out: % Activity Repeat2) it was 97%. For the same compound, the activity at 0.07 µM in series [7] (read-out: % Activity Repeat1) and in series [7] (read-out: % Activity Repeat2) was 102% each time. Besides, the activity at 0.14 µM in [7] (read-out: % Activity Repeat1) came out at 95%; in series [7] (read-out: % Activity Repeat2), 98%. Besides, the activity at 0.28 µM in [7] (read-out: % Activity Repeat1) worked out at 98%; in series [7] (read-out: % Activity Repeat2), 104%. Also, the activity at 4.5 µM in series [7] (read-out: % Activity Repeat1) was determined as 74%; in series [7] (read-out: % Activity Repeat2), 66%. In addition, in series [7] (test range 0.009-4.5 μM), the “effect on 3CL Protease activity (in words)” value is “inhibited 3CL Protease activity”.

With `COc1ccc2c(c1OC)C(=O)O[C@@H]2[C@H]1c2c(cc3c(c2OC)OCO3)CCN1C` [Noscapine, (3S)-6,7-dimethoxy-3-[(5R)-5,6,7,8-tetrahydro-4-methoxy-6-methyl-1,3-dioxolo[4,5-g]isoquinolin-5-yl]-1(3H)-isobenzofuranone, monohydrochloride], the IC50 in the series on MCF-7 cell line was 42.3 µM; with HeLa cells, 25 µM; with thymocytes it was 10 µM; with Renal 1983 cell line it was 39.1 µM.

Take `CCC(CC)COC(=O)[C@H](C)N[P@](=O)(OC[C@H]1O[C@@](C#N)(c2ccc3c(N)ncnn23)[C@H](O)[C@@H]1O)Oc1ccccc1` [Remdesivir]: in the series on SARS-CoV-2 [2], the “increase in EC50 from MOI=1 to MOI=26” value came out at 2.7 fold. Besides, the concentration giving a half-maximal response (EC50) with SARS-CoV-2 [3] (setting [10]) turned out to be 0.13 µM. Also, in [8], the “half-life (t 1/2)” value is 1 h.

`Nc1ncnc2c1nc(Cl)n2[C@@H]1O[C@@H]2COP(=O)(O)O[C@H]2[C@H]1O` [Tocladesine, 8-chloroadenosine 3′,5′-monophosphate]: in the series with SARS-CoV-2 [2], the “SI (selectivity index, CC50/EC50)” value is given as > 4.15 and the “activity in the HeLa-ACE2 cell-based SARS-CoV-2 assay (in words)” value is listed as “active against COVID-19”. Also, in the series with SARS-CoV-2 [2] (listed as tocladesine), the “activity in the HeLa-ACE2 cell-based SARS-CoV-2 assay (in words)” value is listed as “demonstrated activity”. Further, the half-maximal effective concentration (EC50) in the series with SARS-CoV-2 [3] (setting [10]) was > 9.59 µM. Moreover, the CC50 at 24 h in series [4] is > 39.8 µM.

Regarding `Cc1cccc(/C=N/Nc2cc(N3CCOCC3)nc(OCCc3ccccn3)n2)c1` [apilimod], in the series with SARS-CoV-2 [2], the “increase in EC50 from MOI=1 to MOI=26” value stood at 3.7 fold. The Emax with SARS-CoV-2 [3] (Severe acute respiratory syndrome coronavirus 2, HeLa-ACE2, read-out: maximal efficacy (uninfected cells at the highest effective concentrations)) fell in the range of 85 to 90%.

For `COc1ccc(C[C@H](N)C(=O)N[C@H]2[C@@H](O)[C@H](n3cnc4c(N(C)C)ncnc43)O[C@@H]2CO)cc1` [puromycin], the EC50 in the series on SARS-CoV-2 [3] (Severe acute respiratory syndrome coronavirus 2, HeLa-ACE2, read-out: EC50 (total cell numbers per well, compound toxicity in the context of infection)) was determined as 0.547 ± 0.027 µM.

Turning to `O=C(c1ccc(OCCN2CCCCC2)cc1)c1c(-c2ccc(O)cc2)sc2cc(O)ccc12` [raloxifene], the EC50 in the series with SARS-CoV-2 [9] was 4.13 µM.

The record behind these values is patent US12551475B2, “Methods and compositions for treating RNA viral infections” (Model Medicines, Inc., priority 2020, dated 2026).
